Reference: PubChem BioAssay (NCI)
Several values for one entry are separate records, joined by “and”; a condition that tells them apart may be missing. Equal values may be shown once.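 These data come from cells grown in 96-well plates and exposed to compound for 48 hours at five concentrations. GI50: concentration for 50% inhibition of growth. TGI is the concentration that stops growth completely.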

Assays:
Experiment in all cases: NCI-60 cell line screen, 48 h
[1] = tested on: HOP-18 NSCLC
[2] = tested on: KM20L2 colon
[3] = tested on: M19-MEL melanoma
[4] = tested on: T-47D breast
[5] = tested on: BT-549 breast
[6] = tested on: HS 578T breast
[7] = tested on: DMS 273 small cell lung
[8] = tested on: RXF-631 renal
[9] = tested on: MDA-N

Row | Structure (SMILES) | TGI [1] [µM] | TGI [2] [µM] | TGI [3] [µM] | GI50 [4] | TGI [4] | GI50 [5] | TGI [5] | GI50 [6] | TGI [6] | TGI [7] [µM] | TGI [8] [µM] | TGI [9] [µM]
1 | CCOc1cc2ccc3c4cc(OC)c(OC)cc4cnc3c2cc1OCC | > 100 | > 100 | > 100 | – | – | – | – | – | – | – | – | –
2 | COc1ccc(/C=N/N=C(\N)NO)c(Cl)c1O | 54.2 | – | 53.3 | – | – | – | – | – | – | – | – | –
3 | C[C@@H](N)C1CCC(C(=O)Nc2ccncc2)CC1 (stereo partly drawn) | – | – | – | > 100 µM | > 100 µM | > 88.4 µM | > 100 µM | 26.4 µM | > 100 µM | – | – | –
4 | Cc1nnc(N=Nc2c(O)[nH]c3c(Cl)cc(Cl)cc23)n1N | > 100 | > 100 | > 100 | – | – | – | – | – | – | – | – | –
5 | COC(=O)C(Cc1cnc[nH]1)NC(=O)CNC(=O)CCCn1c(=O)c2c3ccccc3n(C)c2n2nnc(-c3ccccc3)c12 (stereo not drawn) | – | – | – | > 100 µM | > 100 µM | > 100 µM | > 100 µM | > 100 µM | > 100 µM | – | – | –
6 | COc1c(C)c2c(c3c1c(=O)c1ccccc1n3C)C=CC(C)(C)O2 | 97.8 | > 100 | 82.4 | – | – | – | – | – | – | 38 | – | –
7 | COCc1c(CO)cnc(C)c1OC1OC(CO)C(O)C(O)C1O (stereo not drawn) | – | > 100 | > 100 | – | – | – | – | – | – | > 100 | – | –
8 | O=C(NCCO)c1cc2c(cn1)[nH]c1ccccc12 | – | > 100 | – | – | – | – | – | – | – | > 100 | > 100 | –
9 | COc1c2c3ccccc3nc-2n(C)c2ccccc12 | – | – | – | – | – | 18.8 µM | 43.5 µM | 42 µM | > 100 µM | – | – | –
10 | CCOC(=O)C(Cc1c[nH]c2ccc([N+](=O)[O-])cc12)(NC(C)=O)C(=O)OCC | – | – | – | 50.1 µM | > 1000 µM | 44.5 µM | 426 µM | 80.8 µM | > 765 µM | – | – | –
11 | O=C(CCCCCCCn1cc(-c2cccnc2)nn1)Nc1ccccc1-c1ccccc1 | – | – | – | 1.44 µM | 28 µM | 1.44 µM | 25.6 µM | 7.22 µM | > 100 µM | – | – | –
12 | COc1ccccc1/C=C/C(=O)c1c(O)cc2occc2c1OC | – | – | – | 55.9 µM | > 100 µM | 28.2 µM | > 100 µM | 38.2 µM | > 100 µM | – | – | –
13 | O=C(N/N=C/c1ccccc1O)C(O)(c1ccccc1)c1ccccc1 | – | – | – | 8.02 µM | > 100 µM | > 100 µM | > 100 µM | > 100 µM | > 100 µM | – | – | –
14 | Cc1nc2ccccn2c1NC(=O)NNC(=S)Nc1ccc(Br)cc1 | – | – | – | 48.2 µM | > 100 µM | 42.8 µM | > 100 µM | 54.8 µM | > 100 µM | – | – | –
15 | Cc1cc(C(=O)Nc2nc3cccc(Cl)c3n2[C@@H]2CCCCN(C(=O)/C=C/CN(C)C)C2)ccn1 | – | – | – | 1.5 µM | 23.7 µM | 7.26 µM | 20.9 µM | 9.11 µM | 37.3 µM | – | – | –
16 | O=C1OC(c2ccccc2)=N/C1=C\c1ccc2ccccc2c1 | > 100 | > 100 | > 100 | – | – | – | – | – | – | – | – | –

Row | Structure (SMILES) | TGI [1] [µM] | TGI [2] [µM] | TGI [3] [µM] | GI50 [4] | TGI [4] | GI50 [5] | TGI [5] | GI50 [6] | TGI [6] | TGI [7] [µM] | TGI [8] [µM] | TGI [9] [µM]
17 | O=C(c1ccc(OCCN2CCCCC2)cc1)c1c(-c2ccc(O)cc2)sc2cc(O)ccc12 | – | – | – | 2.77 µM and 5.89 µM | 20 µM and > 50.2 µM | 7.8 µM and 12 µM | 21.5 µM and 27.9 µM | 2.99 µM and 9.71 µM | 22.8 µM and 47.8 µM | – | – | –
18 | CCc1c2c(nc3cc4c(c(N)c13)OCO4)-c1cc3c(c(=O)n1C2)COC(=O)[C@]3(O)CC | – | – | – | < 0.001 µM | – | < 0.001 µM | 4.39 µM | – | > 100 µM | – | – | > 100
19 | O=C(/C=C/c1ccc(O)c(O)c1)OC1C[C@@](O)(C(=O)O)C[C@@H](O)[C@H]1OC(=O)/C=C/c1ccc(O)c(O)c1 (stereo partly drawn) | > 100 | > 100 | > 100 | – | – | – | – | – | – | > 100 | – | –
20 | O=Cc1ccc(-c2ccc(-c3nc4ccccc4[nH]3)cc2)s1 | – | – | – | – | – | 15.6 µM | 52.4 µM | – | – | – | – | –
21 | Cc1ncc(C(=O)Nc2ccc(CN3CCN(C)CC3)c(C(F)(F)F)c2)cc1C#Cc1cnc(N)c2cnccc12 | – | – | – | 0.317 µM | > 32.8 µM | 0.841 µM | 10.7 µM | 0.058 µM | 0.696 µM | – | – | –
22 | CNC1C(O)C(OC2C(N)CC(N)C(OC3OC(CN)=CCC3N)C2O)OCC1(C)O (stereo not drawn) | – | – | – | – | > 100 µM | – | > 100 µM | – | > 100 µM | – | – | > 100
23 | CCN(CC)c1ccc(C2CC(c3cc(OC)c(OC)c(OC)c3)=NN2)cc1 (stereo not drawn) | – | – | – | – | – | 1.03 µM | > 22.9 µM | – | – | – | – | –
24 | CCCOc1ccc(-c2nc(-c3ccc(N=Cc4ccc(N(CCOS(C)(=O)=O)CCOS(C)(=O)=O)cc4C)cc3)cs2)cc1 | – | – | – | – | > 92.1 µM | – | – | – | > 90.9 µM | – | – | > 85
25 | COC(=O)[C@@]1(Cc2ccccc2)[C@H]2c3cc(C(=O)N4CCCC4)n(Cc4ccc(OC)c(OC)c4)c3C[C@H]2CN1C(=O)c1ccccc1 | – | – | – | 9.55 µM | 32.1 µM | 8.46 µM | 16.1 µM | 6.56 µM | 19.4 µM | – | – | –
26 | O=C1/C=C/[C@@H](O)[C@@H]2C[C@@H](O)C[C@H]2/C=C/CCC[C@H](CCc2ccc(C(F)(F)F)cc2)O1 | – | – | – | 0.318 µM | 59.8 µM | 0.355 µM | 10.7 µM | 0.0602 µM | > 27.2 µM | – | – | –
27 | N#CC(/C(=N\NC(=O)c1ccncc1)C(=O)Nc1ccc([N+](=O)[O-])cc1[N+](=O)[O-])c1nc(-c2ccc(Br)cc2)cs1 (stereo not drawn) | – | > 100 | > 100 | – | – | – | – | – | – | – | > 100 | –
28 | O=C(NCCc1ccccc1)C(c1ccccc1)(c1ccccc1)c1ccccc1 | – | – | – | 30.4 µM | > 100 µM | 5.99 µM | 44.9 µM | 3.88 µM | 23.7 µM | – | – | –
29 | COc1ccc(-c2nsc3c2NC(=O)CC3c2ccc(F)cc2)cc1 (stereo not drawn) | – | – | – | 4.64 µM | > 100 µM | 7.72 µM | > 100 µM | 4.48 µM | > 73.8 µM | – | – | –
30 | CN[C@@H](C)C(=O)N[C@H]1CN(C(=O)CC(C)C)CC[C@H]2CC[C@@H](C(=O)NC(c3ccccc3)c3ccccc3)N2C1=O | – | – | – | > 100 µM | > 100 µM | 0.231 µM | > 100 µM | > 81.7 µM | > 100 µM | – | – | –
31 | O=C(O)C1=C(C(=O)Nc2ccccc2)C2C=CC1C2 (stereo not drawn) | > 100 | > 100 | > 100 | – | – | – | – | – | – | > 100 | – | –
32 | CC(=O)[O-].CC(=O)[O-].O=C(N/N=C/c1cc(Cl)cc(Cl)c1O)c1ccncc1.[Ni+2] | – | > 100 | – | – | – | – | – | – | – | – | – | –
